From paper PMC9389588, “1,6-epi-Cyclophellitol Cyclosulfamidate Is a Bona Fide Lysosomal α-Glucosidase Stabilizer for the Treatment of Pompe Disease” (Journal of the American Chemical Society, 2022)

Key:
[1] = target: T1, ER α-glucosidase II (GANAB) (Homo sapiens, UniProt Q14697); assay: in vitro apparent IC50, GANAB in fibroblast lysates, 4-MU-α-D-glucopyranoside; format: biochemical; details: apparent IC50; Pompe disease fibroblast lysates; pH 7.0; mean ± SD
T1 construct: GANAB (from Pompe Disease Fibroblast Lysates); endogenous in cells; host or cells: human fibroblasts (lysate)
T1 sequence (Q14697 29-944): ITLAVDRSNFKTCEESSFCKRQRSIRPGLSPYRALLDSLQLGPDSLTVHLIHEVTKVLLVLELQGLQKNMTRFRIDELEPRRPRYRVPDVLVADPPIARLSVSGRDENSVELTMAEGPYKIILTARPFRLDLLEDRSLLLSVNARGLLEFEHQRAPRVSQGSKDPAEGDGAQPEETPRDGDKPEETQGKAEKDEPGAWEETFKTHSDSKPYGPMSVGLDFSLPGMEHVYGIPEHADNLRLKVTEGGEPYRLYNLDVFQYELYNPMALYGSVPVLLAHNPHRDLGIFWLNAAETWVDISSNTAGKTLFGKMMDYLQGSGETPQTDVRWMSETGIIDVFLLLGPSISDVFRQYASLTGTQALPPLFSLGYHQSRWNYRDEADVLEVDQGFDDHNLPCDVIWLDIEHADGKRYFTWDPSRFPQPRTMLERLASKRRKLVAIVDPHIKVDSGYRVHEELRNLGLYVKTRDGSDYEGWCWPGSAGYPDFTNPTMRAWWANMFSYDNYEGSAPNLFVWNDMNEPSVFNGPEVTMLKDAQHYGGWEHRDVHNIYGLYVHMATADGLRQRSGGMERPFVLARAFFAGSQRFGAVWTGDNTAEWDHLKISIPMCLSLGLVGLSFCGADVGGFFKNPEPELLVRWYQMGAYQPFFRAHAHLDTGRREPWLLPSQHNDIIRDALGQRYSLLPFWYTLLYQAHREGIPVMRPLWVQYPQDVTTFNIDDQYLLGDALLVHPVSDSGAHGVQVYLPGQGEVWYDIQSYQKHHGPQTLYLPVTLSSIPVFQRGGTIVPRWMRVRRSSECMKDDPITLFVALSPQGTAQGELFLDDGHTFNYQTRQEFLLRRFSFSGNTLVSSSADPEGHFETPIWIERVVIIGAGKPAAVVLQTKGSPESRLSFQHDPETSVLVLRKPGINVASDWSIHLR
T1 sequence (P14314 15-528 partner): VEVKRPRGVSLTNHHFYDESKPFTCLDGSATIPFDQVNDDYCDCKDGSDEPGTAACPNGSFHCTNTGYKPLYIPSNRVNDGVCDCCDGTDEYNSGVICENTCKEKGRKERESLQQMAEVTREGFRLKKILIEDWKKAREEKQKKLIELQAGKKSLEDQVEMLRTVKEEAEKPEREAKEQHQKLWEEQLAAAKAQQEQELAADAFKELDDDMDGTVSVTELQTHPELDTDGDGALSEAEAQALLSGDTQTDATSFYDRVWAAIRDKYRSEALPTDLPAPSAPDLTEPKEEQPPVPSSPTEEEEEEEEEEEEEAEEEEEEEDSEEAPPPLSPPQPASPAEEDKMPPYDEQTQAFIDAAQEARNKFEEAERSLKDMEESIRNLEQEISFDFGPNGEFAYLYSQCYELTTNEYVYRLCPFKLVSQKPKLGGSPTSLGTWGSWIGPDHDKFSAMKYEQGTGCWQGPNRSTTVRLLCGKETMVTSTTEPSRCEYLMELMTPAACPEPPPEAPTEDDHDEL

[2] = target: T2, β-glucosidase GBA1 (Cerezyme) (Homo sapiens, UniProt P04062, R534H); assay: in vitro apparent IC50, GBA1 (Cerezyme), 4-MU-β-D-glucopyranoside; format: biochemical; details: pH 5.2, mean ± SD, read-out: in vitro GBA IC50
T2 construct: purchased
T2 sequence (P04062 40-536 R534H): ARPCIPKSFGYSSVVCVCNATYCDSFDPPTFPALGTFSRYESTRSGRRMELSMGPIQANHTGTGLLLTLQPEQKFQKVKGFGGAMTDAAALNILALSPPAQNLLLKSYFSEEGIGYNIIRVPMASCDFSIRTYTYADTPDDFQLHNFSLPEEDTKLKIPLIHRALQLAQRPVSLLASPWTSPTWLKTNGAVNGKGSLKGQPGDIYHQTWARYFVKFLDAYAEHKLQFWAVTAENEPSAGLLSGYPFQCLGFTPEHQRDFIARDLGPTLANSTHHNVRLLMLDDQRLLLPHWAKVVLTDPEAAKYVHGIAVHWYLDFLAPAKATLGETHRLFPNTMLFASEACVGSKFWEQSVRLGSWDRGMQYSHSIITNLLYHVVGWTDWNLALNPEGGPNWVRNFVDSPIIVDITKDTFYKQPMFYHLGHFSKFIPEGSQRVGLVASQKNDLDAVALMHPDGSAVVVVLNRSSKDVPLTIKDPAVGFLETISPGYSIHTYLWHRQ

[3] = target: T3, glucosylceramide synthase (GCS) (Mus musculus, UniProt O88693); assay: in situ cell inhibition of GCS in RAW 264.7 cells, glucosylation of C6-NBD-ceramide; format: cell-based; details: mean ± SD
T3 construct: endogenous in cells; host or cells: RAW 264.7
T3 sequence (O88693 1-394): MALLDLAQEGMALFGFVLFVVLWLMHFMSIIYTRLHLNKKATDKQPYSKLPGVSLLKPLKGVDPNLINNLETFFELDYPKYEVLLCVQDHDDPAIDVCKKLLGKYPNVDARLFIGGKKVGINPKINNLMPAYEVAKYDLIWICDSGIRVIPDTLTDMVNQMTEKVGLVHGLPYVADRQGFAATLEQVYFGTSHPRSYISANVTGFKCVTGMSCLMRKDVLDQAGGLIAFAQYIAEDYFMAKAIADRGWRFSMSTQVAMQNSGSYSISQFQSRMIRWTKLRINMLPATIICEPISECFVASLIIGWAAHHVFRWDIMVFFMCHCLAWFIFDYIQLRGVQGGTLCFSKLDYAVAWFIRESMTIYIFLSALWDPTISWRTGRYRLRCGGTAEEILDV

[4] = target: T4, lactase-phlorizin hydrolase (LPH) (Mus musculus, UniProt F8VPT3); assay: competitive ABPP in mouse intestine homogenates, LPH; format: biochemical; details: mouse duodenum extracts; 0-100 μM; pH 6.0
T4 construct: cABPP in mouse intestine homogenates; from tissue; host or cells: duodenum of wild type mice
T4 sequence (F8VPT3 22-1931): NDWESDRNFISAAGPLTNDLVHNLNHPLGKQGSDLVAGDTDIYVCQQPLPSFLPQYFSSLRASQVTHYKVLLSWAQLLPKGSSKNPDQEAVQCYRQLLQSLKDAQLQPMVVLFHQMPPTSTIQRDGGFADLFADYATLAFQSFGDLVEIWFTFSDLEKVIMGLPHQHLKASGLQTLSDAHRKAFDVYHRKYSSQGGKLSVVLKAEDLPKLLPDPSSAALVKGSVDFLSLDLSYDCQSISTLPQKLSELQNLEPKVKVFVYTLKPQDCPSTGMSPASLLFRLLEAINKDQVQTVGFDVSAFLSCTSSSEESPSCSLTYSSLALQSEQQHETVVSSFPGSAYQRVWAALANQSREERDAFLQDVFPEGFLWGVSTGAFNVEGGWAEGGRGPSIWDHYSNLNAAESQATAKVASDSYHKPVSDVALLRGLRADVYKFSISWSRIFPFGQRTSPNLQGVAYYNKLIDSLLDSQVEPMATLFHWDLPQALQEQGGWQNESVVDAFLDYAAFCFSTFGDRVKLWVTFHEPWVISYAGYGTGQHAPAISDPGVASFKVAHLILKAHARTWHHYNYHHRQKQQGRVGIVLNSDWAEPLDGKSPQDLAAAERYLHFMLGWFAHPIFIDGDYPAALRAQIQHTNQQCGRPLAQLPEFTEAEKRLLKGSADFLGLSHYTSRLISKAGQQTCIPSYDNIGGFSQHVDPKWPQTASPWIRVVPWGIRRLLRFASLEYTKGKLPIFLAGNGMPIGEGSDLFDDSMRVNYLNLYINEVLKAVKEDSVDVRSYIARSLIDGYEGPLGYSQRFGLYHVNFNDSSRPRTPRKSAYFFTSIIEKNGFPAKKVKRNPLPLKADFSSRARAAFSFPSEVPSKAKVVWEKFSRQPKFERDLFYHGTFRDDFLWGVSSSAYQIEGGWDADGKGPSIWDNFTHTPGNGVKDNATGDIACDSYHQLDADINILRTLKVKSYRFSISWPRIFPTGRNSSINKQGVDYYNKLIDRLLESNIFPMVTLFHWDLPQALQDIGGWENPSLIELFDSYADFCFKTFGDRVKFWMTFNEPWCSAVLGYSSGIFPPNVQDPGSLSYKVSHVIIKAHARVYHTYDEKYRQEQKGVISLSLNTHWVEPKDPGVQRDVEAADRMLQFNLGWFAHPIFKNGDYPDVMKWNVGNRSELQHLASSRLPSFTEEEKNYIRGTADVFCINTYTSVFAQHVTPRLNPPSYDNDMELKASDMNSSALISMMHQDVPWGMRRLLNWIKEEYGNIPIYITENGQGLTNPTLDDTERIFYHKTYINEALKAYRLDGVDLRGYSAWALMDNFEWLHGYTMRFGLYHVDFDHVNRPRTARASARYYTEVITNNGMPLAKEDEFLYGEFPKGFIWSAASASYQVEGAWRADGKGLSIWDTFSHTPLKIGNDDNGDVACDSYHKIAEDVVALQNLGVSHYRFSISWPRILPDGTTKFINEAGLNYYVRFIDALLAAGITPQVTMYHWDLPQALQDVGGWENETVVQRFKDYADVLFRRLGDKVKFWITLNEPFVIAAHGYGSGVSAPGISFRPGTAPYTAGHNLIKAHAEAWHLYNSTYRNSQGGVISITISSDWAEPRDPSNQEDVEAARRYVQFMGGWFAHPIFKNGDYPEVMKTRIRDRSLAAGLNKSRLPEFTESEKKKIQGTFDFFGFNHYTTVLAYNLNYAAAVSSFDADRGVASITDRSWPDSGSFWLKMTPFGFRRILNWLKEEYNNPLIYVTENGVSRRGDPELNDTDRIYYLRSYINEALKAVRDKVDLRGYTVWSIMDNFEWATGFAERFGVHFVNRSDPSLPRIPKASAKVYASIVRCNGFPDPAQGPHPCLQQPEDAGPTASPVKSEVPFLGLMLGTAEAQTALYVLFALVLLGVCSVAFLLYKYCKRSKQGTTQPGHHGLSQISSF

Row | Structure (SMILES) | IC50 [1] [µM] | IC50 [2] [µM] | IC50 [3] [µM] | inhibition of LPH activities by cABPP, in words [4]
1 | O=S1(=O)N[C@@H]2[C@H](O)[C@@H](O)[C@H](O)[C@@H](CO)[C@@H]2O1 [compound 4, 1,6-epi-cyclophellitol cyclosulfamidate] | 496 ± 30 | > 500 | > 50 | inhibit neither β-glucosidase nor β-galactosidase activities
2 | O=S1(=O)N[C@H]2[C@H](CO)[C@@H](O)[C@H](O)[C@@H](O)[C@H]2O1 [compound 6] | 47 ± 1.75 | > 500 | > 50 | 
